Reference: US20180161366A1, “METHODS OF OBTAINING MONONUCLEAR BLOOD CELLS AND USES THEREOF” (Biokine Therapeutics Ltd., priority 2015, published 2018)
“And” between values parts separate entries of the source, which are not always exact repeats. Equal values may be shown once. Read-outs that look alike come from different tables or passages of the source. Non-standard residues stand in square brackets, D forms with d. *: point of attachment. Benzoyl(4-F) = O=C(c1ccc(F)cc1)*; Cit = NC(=O)NCCC[C@H](N)C(=O)O

Assays:
[1] = system: myeloid leukemia, hematopoietic tumors and non-small cell lung cancer; conditions: cited from earlier work
[2] = system: healthy subjects; assay: Open label single injection of BL-8040 followed by leukapheresis: composition of collected graft and kinetics of WBC, ImDC and T cells; format: in vivo, human
Protocol: FIG. 1 is a graph illustrating kinetic analysis of the effect of BL-8040 administration on mobilization of white blood cells (WBC) to the peripheral blood. The figure presents a time course of total WBC in the peripheral blood of subjects in response to a single SC administration of 1 mg/kg BL-8040 as determined by flow cytometry.
FIG. 2 is a graph illustrating kinetic analysis of the effect of BL-8040 administration on mobilization of immature dendritic cells (ImDC) to the peripheral blood. The figure presents a time course of ImDC in the peripheral blood of subjects in response to a single SC administration of 1 mg/kg BL-8040 as determined by flow cytometry.
FIG. 3 is a graph illustrating kinetic analysis of the effect of BL-8040 administration on mobilization of CD3+ T cells to the peripheral blood. The figure presents a time course of CD3+ T in the peripheral blood of subjects in response to a single SC administration of 1 mg/kg BL-8040 as determined by flow cytometry.
Leukapheresis—The leukapheresis procedure was commenced approximately 4 hours (±1 hour) post BL-8040 injection. Eighteen (18) Liter apheresis was collected at a Bone Marrow Transplant unit using the Spectra Optia® Apheresis System.
(§1) White blood cell count—Blood count assays were performed using Beckman-Coulter analyzers (GENS,750,000).
(§2) Flow cytometry—Cells (100 μl) were stained for 30 minutes in 0.1 ml FACS buffer with fluorescence antibodies directed against Human CD3, CD19, CD56, CD4, CD8, CCR7, CD83, lin-cocktail, CD11c, CD45RA, CD25, /Foxp3+, CD16, CD34, CD38 CD105 or matched isotype controls and mouse CD3, and B220 all from eBioscience San Diego, Calif. 92121 USA. Following staining the cells were washed with FACS buffer and analyzed by flow cytometry (5 μl per sample) using the FACS Caliber Flow Cytometer (BD Biosciences). Data was analyzed using software from CellQuest (version 3.3; BD Biosciences). Cells were first gated according to the forward scatter and side scatter parameters to exclude dead cells and the number and percent of each cell population (e.g. HSPCs, T cells, B cells, NK cells, NKT cells and DCs) was analyzed.
The second part of the study was an open label test. 8 healthy subjects received a single injection of BL-8040 (1 mg/kg) and 3-4 hours later were subjected to a standard leukapheresis (18 L) procedure. The composition of the collected graft was tested for the number of WBCs per kg, number of CD34+ HSPC per kg and number and type of T cells, B cells, NK cells and dendritic cells (DC) per kg.

[3] = system: C57BL mice; assay: Number of CD3+ T cells and B220+ B cells in spleen and peripheral lymph nodes of mice (FIG. 4); format: in vivo, mouse; conditions: 5 mg/kg
Protocol: FIG. 4 are graphs presenting the number of CD3+ T cells and B220+ B cells in spleen and peripheral lymph nodes (PLN) of C57BL mice prior (denoted as control) and following administration of 5 mg/kg BL-8040, as determined by flow cytometry.
as §2

[4] = system: healthy subjects; format: in vivo; conditions: for Mean CD34+ count (HSPC): four hours post first administration, baseline 5.8/μL, placebo 8; for Mean count of CD34+ HSPC: four hours post second administration, placebo 9
Protocol: as §1, §2
The first part of the study was a randomized, double-blind, placebo-controlled dose escalation. […] After obtaining informed consent, BL-8040 was administered subcutaneously (SC) once daily on 2 consecutive days at a dose of 0.5, 0.75 or 1 mg/kg.

[5] = system: C57BL/6 mice; assay: BL8040-induced mobilization of T cell subsets in naive mice or mice bearing pancreatic or melanoma cancer; format: in vivo; conditions: 400 μg/mouse SC
Protocol: Six-to 8-week-old female or male C57BL/6 were purchased from Harlan laboratories. Mice were maintained and all animal experiments were conducted according to the protocols approved by the institutional animal care of the Hebrew university.
Female C57BL/6 mice were inoculated subcutaneously at the right flank with 1× 10^6 B16F10 cells in 0.1 mL PBS. When tumors reached 90 to 150 mm^2 in size (after two weeks), mice were treated with BL-8040, according to the below regimen.
1.5×10^6 Livmet cells/10 μl PBS and 10 μl Matrigel (BD Biosciences) were injected into the pancreas of male C57BL/6 mice. Mice were treated with BL8040, 3 weeks after the injection.
BL8040 (400 μg/mouse dissolved in phosphate-buffered saline) was administered once by subcutaneous injection and 2 h later the blood was collected into tube with heparin.
Fluorescent-activated cell sorting analysis was performed on whole blood (day 0) and expanded cells (day 10).
Whole blood was treated with red blood cell lysis solution (0 155 M NH4Cl, 0.01 M KHCO3, 0.01 mmol/l EDTA, pH 7.4) in order to lyse the erythrocytes. Isolated cells were washed with PBS, re-suspended with 0.1 ml of PBS and stained with fluorescent antibodies directed against specific surface markers.
Cells were incubated with mobs: CD8-PE, CD4-APC, CD3-FITC, CD25-PE-Cy7, CD69-PerCP, CD44-PE-Cy7, CD137-PE-Cy7, CD279-FITC, CD62L-FITC and CD223-FITC (eBioscience).

[6] = target: CXCR4 receptor (Homo sapiens, UniProt P61073); conditions: cited from earlier work
[7] = system: mice; conditions: single injection; cited from earlier work
[8] = peripheral blood, 0.5-1 mg/kg SC

Sequence of CXCR4 receptor (P61073 whole entry): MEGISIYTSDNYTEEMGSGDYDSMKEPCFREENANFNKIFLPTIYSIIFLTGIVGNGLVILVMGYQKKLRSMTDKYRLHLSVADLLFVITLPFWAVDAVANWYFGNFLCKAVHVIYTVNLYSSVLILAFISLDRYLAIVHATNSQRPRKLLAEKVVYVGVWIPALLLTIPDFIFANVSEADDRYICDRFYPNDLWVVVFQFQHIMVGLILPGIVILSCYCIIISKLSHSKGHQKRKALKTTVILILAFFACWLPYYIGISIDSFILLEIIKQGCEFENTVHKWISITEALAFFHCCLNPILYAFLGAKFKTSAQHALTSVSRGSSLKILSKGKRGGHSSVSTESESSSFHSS

4F-benzoyl-Arg-Arg-Nal-Cys-Tyr-Cit-Lys-DLys-Pro-Tyr-Arg-Cit-Cys-Arg-NH2 ({Benzoyl(4-F)}-RR[Nal]CY[Cit]K[dK]PYR[Cit]CR-NH2; not fully specified; printed as 4F-benzoyl-Arg-Arg-Nal-Cys-Tyr-Cit-Lys-DLys-Pro-Tyr-Arg-Cit-Cys-Arg-NH2; also: cyclised, bridge not given here) [BL-8040]
toxicity against tumors [1]: toxic against several tumors | B cells (CD19+), % of graft ([2]; 3.5-8 hours following 1 mg/kg): 13.1% | B cells (CD19+), median ([2]; 3.5-8 hours following 1 mg/kg): 2.03 × 10^8/Kg and 2.03 (0.32-2.6) × 10^8/Kg | Central memory CD4 T cells (CD3+/CD4+ CD45RA−/CCR7+), % of CD4+ cells ([2]; 3.5-8 hours following 1 mg/kg): 37.99% | Central memory CD8 T cells (CD3+/CD8+ CD45RA−/CCR7+), % of CD8 cells ([2]; 3.5-8 hours following 1 mg/kg): 33.1% | Cytotoxic T cells (CD3+CD8+), % of graft ([2]; 3.5-8 hours following 1 mg/kg): 22.5% | Cytotoxic T cells (CD3+CD8+), median ([2]; 3.5-8 hours following 1 mg/kg): 2.89 × 10^8/Kg and 2.89 (1.7-4.9) × 10^8/Kg | Effector CD4 T cells (CD3+/CD4+ CD45RA+/CCR7−), % of CD4+ cells ([2]; 3.5-8 hours following 1 mg/kg): 6.24% | Effector CD8 T cells (CD3+/CD8+ CD45RA+/CCR7−), % of CD8 cells ([2]; 3.5-8 hours following 1 mg/kg): 1.09% | Effector memory CD4 T cells (CD3+/CD4+ CD45RA−/CCR7−), % of CD4+ cells ([2]; 3.5-8 hours following 1 mg/kg): 21.19% | Effector memory CD8 T cells (CD3+/CD8+ CD45RA−/CCR7−), % of CD8 cells ([2]; 3.5-8 hours following 1 mg/kg): 1.94% | HSPC (CD34+), % of graft ([2]; 3.5-8 hours following 1 mg/kg): 0.78% | HSPC (CD34+), median ([2]; 3.5-8 hours following 1 mg/kg): 11.89 × 10^6/Kg and 11.89 (5.1-15.0) × 10^6/Kg | Immature DCs (lin-CD11c+CD83−), % of graft ([2]; 3.5-8 hours following 1 mg/kg): 0.95% | Immature DCs (lin-CD11c+CD83−), median ([2]; 3.5-8 hours following 1 mg/kg): 1.16e+07 kg⁻¹ | NK cells (CD3−CD56+), % of graft ([2]; 3.5-8 hours following 1 mg/kg): 4.76% | NK cells (CD3−CD56+), median ([2]; 3.5-8 hours following 1 mg/kg): 0.53 × 10^8/Kg and 0.53 (0.15-1.55) × 10^8/Kg | NKT cells (CD3+CD56+), % of graft ([2]; 3.5-8 hours following 1 mg/kg): 1.2% | NKT cells (CD3+CD56+), median ([2]; 3.5-8 hours following 1 mg/kg): 9.8e+06 kg⁻¹ | Naïve CD4 T cells (CD3+/CD4+ CD45RA+/CCR7+), % of CD4+ cells ([2]; 3.5-8 hours following 1 mg/kg): 34.61% | Naïve CD8 T cells (CD3+/CD8+ CD45RA+/CCR7+), % of CD8 cells ([2]; 3.5-8 hours following 1 mg/kg): 63.89% | Regulatory T cells (CD4+CD25+Foxp3+), % of graft ([2]; 3.5-8 hours following 1 mg/kg): 1.28% | Regulatory T cells (CD4+CD25+Foxp3+), median ([2]; 3.5-8 hours following 1 mg/kg): 1.61e+07 kg⁻¹ | T cells (CD3+), % of graft ([2]; 3.5-8 hours following 1 mg/kg): 48.08% | T cells (CD3+), median ([2]; 3.5-8 hours following 1 mg/kg): 7.32 × 10^8/Kg and 7.32 (4.0-8.5) × 10^8/Kg | T helper cells (CD3+CD4+), % of graft ([2]; 3.5-8 hours following 1 mg/kg): 21.7% | T helper cells (CD3+CD4+), median ([2]; 3.5-8 hours following 1 mg/kg): 3.3 × 10^8/Kg and 3.3 (1.44-3.9) × 10^8/Kg | number of T cells in the periphery at 24 hours ([2]; 24 hours following administration, FIG. 3): remains high | time at which number of T cells in the periphery started to decline ([2]; following administration of BL-8040): 48 h | Fold Difference (BL-8040/AMD3100), B cells CD19 ([2]; ratio of medians): 2.00 | Fold Difference (BL-8040/AMD3100), Cytotoxic T cells CD3+CD8+ ([2]; ratio of medians): 2.22 | Fold Difference (BL-8040/AMD3100), HSPC CD34+ ([2]; ratio of medians): 4.10 | Fold Difference (BL-8040/AMD3100), NK cells CD3−CD56+ ([2]; ratio of medians): 1.77 | Fold Difference (BL-8040/AMD3100), T cells CD3+ ([2]; ratio of medians): 1.59 | Fold Difference (BL-8040/AMD3100), T helper cells CD3+CD4+ ([2]; ratio of medians): 1.03 | Fold Difference (BL-8040/G-CSF), Cytotoxic T cells CD3+CD8+ ([2]; ratio of medians): 7.23 | Fold Difference (BL-8040/G-CSF), HSPC CD34+ ([2]; ratio of medians): 2.83 | Fold Difference (BL-8040/G-CSF), NK cells CD3−CD56+ ([2]; ratio of medians): 2.65 | Fold Difference (BL-8040/G-CSF), T cells CD3+ ([2]; ratio of medians): 5.63 | Fold Difference (BL-8040/G-CSF), T helper cells CD3+CD4+ ([2]; ratio of medians): 3 | increase in the total number of WBC ([2]; single 1 mg/kg SC, FIG. 1): 5-7 fold | time within which mobilization of DCs and T cells occurs ([2]; single administration, FIGS. 2-3): 3 to 4 h | source of mobilized T cells (spleen and peripheral lymph nodes counts) [3]: T cells are mobilized from the lymph node into the blood | mean WBC count ([4]; 4 hr post BL-8040 administration, baseline 6.3): 2.97e+10 L⁻¹ | Mean CD34+ count (HSPC) ([4]; 0.5 mg/kg): 37 cells/μL | Mean CD34+ count (HSPC) ([4]; 0.75 mg/kg): 31 cells/μL | Mean CD34+ count (HSPC) ([4]; 1 mg/kg): 35 cells/μL | Mean count of CD34+ HSPC ([4]; 0.5 mg/kg): 38 cells/μL | Mean count of CD34+ HSPC ([4]; 0.75 mg/kg): 46 cells/μL | Mean count of CD34+ HSPC ([4]; 1 mg/kg): 58 cells/μL | safety and tolerability ([4]; healthy subjects, SC once daily on 2 consecutive days, all doses tested (0.5-1 mg/kg)): safe and well tolerated | primary treatment related adverse effects ([4]; healthy subjects, SC, 0.5-1 mg/kg): mild to moderate transient injection site and systemic reactions | mobilization of MSC and HPC colony forming cells [4, 8]: rapid mobilization | mobilization of T, B and NK cells [4, 8]: substantial mobilization | duration of CXCR4 receptor occupancy and pharmacodynamic effect ([4]; post dosing): ≥ 24 h | CD69+ CD25+ activated T cells in collected cells ([5]; cancerous mice vs naive mice, FIG. 6B): more CD69+ CD25+ activated T cells | mobilization of CD4 and CD8 cells ([5]; tumor bearing mice vs non injected or naive mice, blood 2 h later, FIG. 6A): increased mobilization of both CD4 and CD8 cells | binding to the CXCR4 receptor [6]: high affinity and long receptor occupancy | mobilization of long term repopulating stem cells [7]: mobilized long term repopulating stem cells sufficient for transplantation
